From patent US20090062309A1, “Therapeutic compositions for the treatment of cardiovascular diseases and methods for use therefor” (priority 2007, published 2009)

What was measured:
[1] = test system: cell K uptake by RBC; experiment: long-term assay from our laboratory: cell K uptake by RBC (results not shown)
[2] = cited from earlier work
[3] = test system: subjects with stable chronic angina
Method: A double blind placebo-controlled, randomized trial was conducted in 25 subjects with stable chronic angina. […] All of the subjects were evaluated before and after the double-blind trial, thereby measuring a subject's angina clinical score (CCS Angina Class), ECG, and exercise tolerance as assessed by the Duke Treadmill Score (DTS). Methods for using the DTS with patients in need of coronary intervention and its acceptance as an accurate predictor of cardiac morbidity and mortality in CHD and CAD patients has been well established. See for example Azeem T., et al., Int J. Clin. Pract. (2001), 55(1):10-13. […] Participants' clinical and cardiac parameters were evaluated either monthly, quarterly, half yearly and yearly.

[4] = test system: subjects with CHD having decreased RBC K content; type: in vivo, human
Method: Subjects were evaluated by clinical angina (CCS angina Class II-IV), dyspnea, or arrhythmia.
Exclusion Criteria: Evidence of acute coronary syndrome, AMI, stroke or cardiac arrhythmias; NYHA class III-IV of heart failure, hyperkalemia. Informed consent was obtained in all. Other non CHD causes of chest pain, dyspnea, and arrhythmia had been ruled out.
In addition to that, a single dose of calcium gluconolactate (1 g/daily) was given to all subjects having plasma ionized ICa^2+ ≦1.1 mmol/L, while other Laboratory correction and drug assessment were conducted across the first 3-month period (Table 1) Safety control (ECG, Ion Transport Laboratory, BIA, Non-Invasive Hemodynamic) was obtained at 1, 3 and 6 months and 1 year. Clinical control was obtained weekly in the first month or as needed for physician or patient symptoms; thereafter a 3, 6 and 12 months.
The subjects were taken off any drug that might impair RBC transport, such as digitalis, β-blockers, or NSAID's, in subjects with RBC K^+ ≦90.2 mmol/L cell. Oral calcium gluconolactate (1 g/daily) was administered in all subjects with plasma ionized calcium ≦1.1 mmol/L. Subjects had correction of other plasma electrolyte abnormalities. The subjects were taken off any drug that may affect ventricular repolarization, as digoxin, calcium channel blockers (CCB), diuretics, β-blockers, or the like. […] Anti-aggregants or aspirin in subjects free of angina were discontinued after the 3rd month of treatment.
All subjects underwent: a) Serial ECG for LVH by Cornell or Sokolow-Lyon Criteria (QRS duration times Cornell voltage: R aVL+SV3, with 6 mm [added in women >2440 mm×ms], or Sokolow-Lyon voltage: [SV1+RV5/V6] >38 mm; along with LV strain pattern (classical ST-segment depressed, with inverted T-waves), or LVH voltage criteria with mild LV strain pattern (isoelectric, biphasic or non-symmetrical negative T-waves, without ST-segment depression), and ECG criteria for infarction and/or ischemia (Q-waves from previous AMI, decreased R-wave height, non-progressive R-wave voltages in precordial leads, ST-segment elevation […] often referred as injury current, ST-segment depression ≧[…] often downsloping from the J point, rectification of the ST segment, and isoelectric, biphasic, negative or inverted T-wave), intraventricular conduction disturbance, and arrhythmias); b) Non-invasive hemodynamic study (DP200M) for cardiac parameters (LV Ejection Time (LVET), LV dP/dT (LV delta pressure-time), Cardiac output and index (CO, Cl), Stroke Volume (SV), Pulse Wave Analysis (PWA) of Central Aortic Blood Pressure (BP), Aortic Systolic (SBP), Diastolic (DBP) and mean (m) BP, Aortic augmentation index; inflection point and reflected wave analysis, Systemic Vascular Resistance and Compliance (SVR/SVC), and Brachial Artery Distensibility (BAD), Brachial Artery Compliance (BAC); c) Ion Transport Studies for RBC (K^+, Na^+) plasma (K^+, Na^+, Cl^−, ICa^2+, Mg^2+), and 12-hours night urinary volume (K^+, Na^+, Cl^−, pH), d) Bio-Impedance Analysis (BIA, Quantum X, RJL Systems, MI, USA) for Total body Potassium, Total body water/Extracellular Water, Fat Mass (FM) and Fat-Free Mass (FFM) and e) Echocardiography was obtained at entry, 6 and 12 months periods.

[5] = 1-month trial, Amiloride 5 mg/d, N=14
[6] = 1-month, Amiloride 5 mg/d, N=14

Structure (SMILES): Cl.NC(N)=NC(=O)c1nc(Cl)c(N)nc1N.O.O [Amiloride, 3,5-diamino-6-chloro-N-(diaminomethylene) pyrazinecarboxamide monohydrochloride, dihydrate]
- hereditable defect in cell K uptake by RBC [1]: reverses a hereditable defect in cell K uptake by RBC
- hyperkalemia as secondary effect ([2]; as disclosed in various medical textbooks): hyperkalemia is a common secondary effect
- hyperkalemia ([2]; intravenous doses of Amiloride (1 mg/Kg), subjects with chronic kidney disease, Levy Y. et al. 2008): absence of hyperkalemia
- excretion ([2]; upon ingestion, humans): excreted from the kidneys unchanged
- Double-Product [3, 5]: 25700 ± 4633
- Peak Exercise BP, diastolic [3, 5]: 94 ± 10
- Peak Exercise BP, systolic [3, 5]: 177 ± 19
- Peak Exercise HR [3, 5]: 144 ± 19
- Exercise Time ([3]; 1-month trial, Amiloride 5 mg/d, N=14, P<0.05 vs placebo): 7.95 ± 2.8 min
- High Risk Value: Subjects (%) [3, 6]: 35.7%
- Low Risk Value: Subjects (%) [3, 6]: 64.3%
- subjects with improved ST-T alterations of ischemia ([3]; 4 weeks, Amiloride 5 mg daily, 9 out of 14): 64%
- subjects free of angina ([3]; 4 weeks, Amiloride 5 mg daily, Twelve out of 14 subjects): 71%
- adverse episodes of cardiac arrhythmia ([3]; 4 weeks, Amiloride 5 mg daily, exercise treadmill test): without any adverse episodes of cardiac arrhythmia
- 1-Month DTS (Duke Treadmill Score) ([3]; Amiloride 5 mg/d, N=14, Baseline DTS −2.28 ± 7.0): 7.90 ± 4.2
- High Risk Value (DTS), changes from baseline to 1-month ([3]; Amiloride 5 mg/d, high risk subjects): *−3 ± −2.6
- Low Risk Value (DTS), changes from baseline to 1-month ([3]; Amiloride 5 mg/d, low risk subjects): *8.6 ± 2.3
- RBC K ([4]; 1st month, baseline 84.5±4, p<0.001): 93.5±4 mmol/L cell
- cardiovascular events or death ([4]; 2 years of follow-up): 0%
- RBC K+ ([4]; 3rd month): remained improved
- subjects with improved ST-segment depression or elevation and isoelectric, biphasic or inverted T-wave ([4]; 3rd month, CHD subjects, no nitrates, lower anti-aggregants or aspirin): 74%
- LV Strain pattern ([4]; 3rd month, hypertensives): improved or almost reversed
- LVH voltage criteria ([4]; 3rd month, hypertensives, p<0.001): significantly decreased
- normotensive subjects with marked improved ST-segment depression or elevation and inverted T-waves ([4]; 6th month, 3 out 4): 75%
- hypertensives subjects with improved LV Strain pattern ([4]; 6th month, about 4 out of 5): ~80%
- ECG-LVH voltage, Sokolow-Lyon criteria ([4]; 6th month, baseline 29.3±5.2, p=0.001): 25.1±3.2 mm
- ECG-LVH voltage, Cornell ([4]; 6th month, baseline 2577±509, p<0.02): 2353±254 mm×ms
- subjects with previous inferior infarction whose ECGs remained unchanged for Q-waves ([4]; 6th month, these subjects were free of angina): 15%
- QTc interval ([4]; human, in vivo): prolonged
- hyperkalemia ([4]; human, in vivo): never observed
- SVC (Systemic Vascular Compliance) ([4]; hypertensives, 1st month, baseline 0.92±0.16, p<0.003): 1.22±0.21 ml/mmHg
- LV dP/dT ([4]; hypertensives, 1st month, baseline 1757±313, p<0.001): 1302±276 mmHg/s
- BA Compliance ([4]; hypertensives, 1st month, baseline printed 0.57±0.021, p<0.005): 0.069±0.02 ml/mmHg
- angina, single subject FIG. 7B ([4]; normotensive diabetic, after 5 months of Amiloride and calcium treatment): angina reversed
- ECG change, single subject FIG. 3C ([4]; normotensive person, bypass surgery, infarction, instable angina, 6-months Amiloride and calcium): reversion of T-wave alterations
- angina, single subject FIG. 7A ([4]; person, angina, diabetes, hypertension, after 4 months of Amiloride treatment): the angina reversed
- clinical change, single subject FIG. 5B ([4]; person, hypertension, LVH, 3-months Amiloride, antihypertensive and vasodilators drugs): reversion of clinical symptoms of exertional angina, and palpitations
- clinical change, single subject FIG. 4B ([4]; person, hypertension, infarction, heart failure, 2 months after addition of Amiloride and calcium gluconolactate): clinical improvement of angina (3 weeks), heart failure and hypertension
- angina, single subject FIG. 6B ([4]; person, hypertension, post-infarction angina, Amiloride treatment): rapid reversion of angina (7 days)
- ECG T-waves, single subject FIG. 4B ([4]; person, 2 months after addition of Amiloride and calcium gluconolactate): T-waves were improved
- ECG T-wave, single subject FIG. 6B ([4]; person, after 5-months of Amiloride treatment): reversion of T-wave inversion
- free of angina and symptoms of heart failure ([4]; within 1st month, Amiloride 5 mg/daily (calcium gluconolactate 1 g/daily if plasma ICa2+ ≦1.1 mmol/L), 75 CHD subjects): all subjects were free of angina and symptoms of heart failure
